One series in a line: pKa of PP-001. The format is physicochemical. An excerpt: (§1) The general tested characteristics of 3-(2,3,5,6-tetrafluoro-3′-trifluoromethoxy-biphenyl-4-ylcarbamoyl)-thiophene-2-carboxylic acid (PP-001) are shown below in Table 8.
Series [1] in a line: LogP (measured) of PP-001. The format is physicochemical.
Text: as §1

The nature of series [2]: Solubility in 50 mM phosphate buffer. The format is physicochemical.
Text: as §1

Series [3] is described as follows: Stability at pH 2, pH 7.4 and pH 8.5. The format is physicochemical.
Text: as §1

Series [4] is described as follows: Stability in artificial gastric juice, simulated intestinal fluid and PBS. The format is in vitro ADME.
Text: as §1

A short description of series [5]: Stability in human plasma. The series is classed as in vitro ADME.
Text: as §1

The nature of another series: Oral bioavailability. To be noted: in vivo, depending on formulation used.
Text: as §1

Series [6] is described as follows: Solubility and solvent selection assessment. The series is classed as physicochemical. As to the method:
PP-001 (ca. 20 mg, Batch #1) was treated with increasing aliquots of solvent until either a clear solution or maximum of 80 vol ([…]) of solvent was added. Samples were left for […] at 25° C., 300 rpm, after each solvent addition before observations were recorded. Where possible, samples were heated to 50° C. and further observations were taken. Solutions at 25 or 50° C. were cooled to 5° C. at 0.1° C./min, 300 rpm and held overnight. Any suspensions at 50° C. were subjected to maturation cycling between RT/50° C. (4 hours per cycle). Solvents unsuitable for heating to 50° C. or cooling to 5° C. were subjected to evaporation, antisolvent addition at RT or maturation at RT, depending on the solvent.
After 24 h, any solutions at 5° C. were subjected to evaporation at RT with the lid removed. Samples subjected to evaporation were analyzed once dry. The remaining suspensions were left for 3 days at conditions before being extracted using an SPE cartridge and frit under positive pressure filtration.

Series [7] can be described thus: Solvent assessment for lyophilization. The series is classed as physicochemical. Conditions: maximum of 60 vol. As to the method: Preparation and solubility of amorphous PP-001. PP-001 was treated with increasing aliquots of solvent until a maximum of 60 vol (1800 μl) was added in a HPLC vial.
Samples that formed solutions were positive pressure filtered using a PTFE syringe filter to remove any remaining solid particulates. The solutions were then flash frozen in a dry ice/acetone bath and lyophilized overnight to remove the solvent. Solids isolated post-lyophilization were analyzed by XRPD and characterized.

Series [8] is described as follows: Thermodynamic solubility in FaSSIF. The series is classed as physicochemical. Conditions: for XRPD post-TS (residual solid): after thermodynamic solubility in FaSSIF. As to the method: Thermodynamic Aqueous Solubility. Aqueous solubility was determined by suspending sufficient compound in relevant media to give a maximum final concentration of ≥10 mg/ml of the parent free-form of the compound. The suspension was equilibrated at 25° C., on a Heidolph plate shaker set to 750 rpm for 24 hours. The pH of the saturated solution was then measured, and the suspension filtered through a glass fiber C filter (particle retention 1.2 μm) and diluted appropriately. Quantitation was by HPLC with reference to a standard solution of approximately 0.15 mg/ml in DMSO. Different volumes of the standard, diluted and undiluted sample solutions were injected. The solubility was calculated using the peak areas determined by integration of the peak found at the same retention time as the principal peak in the standard injection. [table] In addition to the competitive slurrying, Form A and Form B were both submitted to thermodynamic solubility measurements in FaSSIF media, as well as IDR in pH 7.4 phosphate buffer. The results are shown in Table 19 The full reports for both measurements can be found in Appendix 2—Analytical Service Reports.

A short description of series [9]: Intrinsic dissolution rate (IDR) in pH 7.4 phosphate buffer. Conditions: for XRPD post-IDR: after IDR in pH 7.4 phosphate buffer; for Dissolution rate (pH 7.4 buffer): pH 7.4 phosphate buffer. The format is physicochemical. From the text: In addition, the thermodynamic solubility and the IDR of the two forms was compared in selected media. In addition to the competitive slurrying, Form A and Form B were both submitted to thermodynamic solubility measurements in FaSSIF media, as well as IDR in pH 7.4 phosphate buffer. The results are shown in Table 19 The full reports for both measurements can be found in Appendix 2—Analytical Service Reports.

Series [10] in a line: Gravimetric Vapor Sorption (GVS). The series is classed as physicochemical. To be noted: for Hygroscopicity (GVS): 0-90% RH; for Hygroscopicity (GVS) / GVS mass uptake / GVS mass uptake, equivalent of water: 25° C.; for XRPD Post-GVS: after GVS isotherm; for GVS mass uptake / GVS mass uptake, equivalent of water: between 0 and 90% RH. As to the method:
Gravimetric Vapor Sorption (GVS). Sorption isotherms were obtained using a SMS DVS Intrinsic moisture sorption analyzer, controlled by DVS Intrinsic Control software. The sample temperature was maintained at 25° C. by the instrument controls. The humidity was controlled by mixing streams of dry and wet nitrogen, with a total flow rate of 200 ml/min. The relative humidity was measured by a calibrated Rotronic probe (dynamic range of 1.0-100% RH), located near the sample. The weight change, (mass relaxation) of the sample as a function of % RH was constantly monitored by a microbalance (accuracy ±0.005 mg). Typically, 5-30 mg of sample was placed in a tared mesh stainless steel basket under ambient conditions. The sample was loaded and unloaded at 40% RH and 25° C. (typical room conditions). A moisture sorption isotherm was performed as outlined below (2 scans per complete cycle). The standard isotherm was performed at 25° C. at 10% RH intervals over a 0-90% RH range. Typically, a double cycle (4 scans) was carried out. Data analysis was carried out within Microsoft Excel using the DVS Analysis Suite. [table] The sample was recovered after completion of the isotherm and re-analyzed by XRPD.

Series [11] in a line: Accelerated storage stability (XRPD & HPLC). The format is physicochemical. The protocol:
Chemical Purity Determination by HPLC. Purity analysis was performed on an Agilent HP1100/Infinity II 1260 series system equipped with a diode array detector and using OpenLAB software. The full method details are provided below in Table 12: [table] HPLC indicated the material to have a purity of 99.6% (FIG. 12A). […] The sample was left for an additional 22 days (total 30 days storage) and re-analyzed by XRPD, appearing as Form A, lacking the additional peaks previously observed (FIG. 13B). It was therefore possible that contamination of sample on the instrument in the previous 8-day timepoint was the likely cause of the additional peaks, rather than a form chance or degradation. […] (92 J/g) (FIG. 16). PLM and SEM images indicate the particles to be a series of spherical agglomerates (ca. 50 to 100 μm in diameter), which consist of small (<10 μm) plate-like crystals (FIGS. 17A-17B). HPLC analysis indicated the sample maintained a high purity of 99.5% (FIG. 18A). […] There is a small hysteresis between adsorption and desorption. The sample was unchanged by XRPD post-GVS analysis. […]

A short description of series [12]: Competitive slurrying of Form A and Form B. The format is physicochemical. Conditions: competitive slurrying of Form A and Form B in a range of solvents at 5, 25 and 50° C. The protocol:
The aim of this work was to investigate the order of stability of the scaled-up Form A and Form B via competitive slurrying of the materials in a range of solvents at 5° C., 25° C. and 50° C.
The proposed solvents were aliquoted (1 ml) into HPLC vials and held at 5° C., 25° C. and 50° C. respectively, equilibrating at 300 rpm. […] The saturated solutions were allowed to equilibrate overnight.
Approximately 300 mg of Form B, prepared as described previously in Example 5, and the Form A were added to a 20 ml scintillation vial. The vial was subjected to turbula mixing for over 2 hours to ensure the mixture was homogenous. Approximately 30 mg of a mixture of Form A and Form B was added to a series HPLC vials. The vials were placed at 5, 25 and 50° C., 300 rpm. The suspensions prepared previously were filtered through a PTFE syringe directly into each vial to suspend the prepared form mixture in a saturated solution of the target solvent. Polymorph turnover was investigated by taking a 30-50 μl aliquot of the suspension and analyzing by XRPD.

≈ marks a conversion by molar mass, not a printed value. Entries after “also recorded” stand apart in the source; their conditions may differ.

What is called pKa is the pH at which an ionisable group is half protonated. In general, logP refers to the decadic logarithm of the partition coefficient of the neutral form, usually between octanol and water. Usually solubility stands for the concentration that dissolves in the medium under given conditions. Read a low solubility as little dissolved substance. As usually defined, the bioavailability is dose-corrected exposure relative to a reference, in per cent. Usually thermodynamic solubility stands for the concentration in solution at equilibrium with solid.

With `O=C(Nc1c(F)c(F)c(-c2cccc(OC(F)(F)F)c2)c(F)c1F)c1ccsc1C(=O)O` [PP-001, 3-(2,3,5,6-tetrafluoro-3′-trifluoromethoxy-biphenyl-4-ylcarbamoyl)-thiophene-2-carboxylic acid], in the series “pKa of PP-001”, the pKa worked out at 2.23. Also, the lipophilicity (logP) in [1] was found to be 4.19. The solubility in series [2] (pH 4, aqueous buffer) stood at 1.4 µg/mL (≈ 2.92 µM); in series [2] (pH 7.4, aqueous buffer), 854 µg/mL (≈ 1780 µM); in series [2] (pH 9, aqueous buffer), 833 µg/mL (≈ 1740 µM). The “Stability (stable for)” value in series [3] (pH 2 (HCl)) was “Stable for >16 h at pH 2 (HCl), pH 7.4 (trisbuffer),”; in series [3] (pH 7.4 (tris buffer)) it was “Stable for >16 h at pH 2 (HCl), pH 7.4 (trisbuffer),”; in [3] (pH 8.5 (tris buffer)) it was “Stable for >16 h at pH 2 (HCl), pH 7.4 (trisbuffer),”; in [4] (PBS pH 7.4), “Stable for >6 h in artificial gastric juice, simulated”; in series [4] (artificial gastric juice), “Stable for >6 h in artificial gastric juice, simulated”; in [4] (simulated intestinal fluid), “Stable for >6 h in artificial gastric juice, simulated”. In addition, the “Stability (stable for)” value in [5] is listed as “Stable for >6 h in artificial gastric juice, simulated”. Also, the bioavailability in the series “Oral bioavailability” lay in the range of 15 to 30%. Further, the Solubility in solvents entry is recorded as “good solubility” in series [6] (25° C., dissolution in volumes <80 vol, in 15 of the solvents tested); “Clear solutions” in series [6] (50° C., IPA, 1-propanol, ACN, MeOH:water (3%), MeOH:water (5%), EtOH:water (5%), IPA:water (5%) and IPA:water (25%)); “higher solubility” in [6] (aprotic, polar solvents such as THF, DMSO and acetone); “remained suspensions” in [6] (heptane, toluene, chloroform and water, up to 80 vol, heated to 50° C.). The Solubility for lyophilization entry in series [7] (1,4-dioxane) and in series [7] (THF:water (70:30)) was “soluble” each time.
`O=C(Nc1c(F)c(F)c(-c2cccc(OC(F)(F)F)c2)c(F)c1F)c1ccsc1C(=O)O` [Form B, 3-(2,3,5,6-tetrafluoro-3′-trifluoromethoxy-biphenyl-4-ylcarbamoyl)-thiophene-2-carboxylic acid]: the “Thermodynamic solubility (TS) in FaSSIF” value in series [8] (FaSSIF, 25° C., 24 hours) stood at 930 µg/mL. Besides, the “XRPD post-TS (residual solid)” value in [8] is “Unchanged, residual”. Besides, in series [9], the “XRPD post-IDR” value is “Unchanged” and the “Dissolution rate (pH 7.4 buffer)” value came to 0.15 mg/min/cm^2. Moreover, in series [10], the “Hygroscopicity (GVS)” value is given as “non-hygroscopic”; the “XRPD Post-GVS” value is given as “unchanged”; the GVS mass uptake worked out at 0.10 wt %; the “GVS mass uptake, equivalent of water” value was 0.03 mol. In series [10] (listed as PP-001 Form B), the “XRPD Post-GVS” value was “Unchanged” and the GVS mass uptake was 0.10 wt %. In addition, in series [11] (25° C./97% RH, 7 days), the “HPLC purity after storage” value is on record as 99.4% and the XRPD after storage entry is “no observable changes”. The XRPD after storage entry in series [11] (25° C./97% RH, 7 days, listed as PP-001 Form B) was “Unchanged”. Moreover, in [11] (40° C./75% RH, 7 days), the “HPLC purity after storage” value turned out to be 99.6% and the XRPD after storage result is “no observable changes”. In series [11] (40° C./75% RH, 7 days, listed as PP-001 Form B), the XRPD after storage entry was “Unchanged”.
As for `O=C(Nc1c(F)c(F)c(-c2cccc(OC(F)(F)F)c2)c(F)c1F)c1ccsc1C(=O)O` [Form A, 3-(2,3,5,6-tetrafluoro-3′-trifluoromethoxy-biphenyl-4-ylcarbamoyl)-thiophene-2-carboxylic acid], the solubility (thermodynamic) at 24 h in series [8] (FaSSIF, 25 °C, pH 6.4, fassif, thermodynamic from solid, FaSSIF, 25° C., 24 hours, read-out: Thermodynamic solubility (TS) in FaSSIF) came to 760 µg/mL (≈ 1590 µM). In [8], the “XRPD post-TS (residual solid)” value is listed as “Unchanged, residual”. In addition, the “XRPD post-TS (residual solid)” value in series [8] (listed as PP-001 Form A) is listed as “largely unchanged; also recorded: XRPD unchanged in form plus NaCl reference peaks”. In series [9], the “XRPD post-IDR” value is on record as “Unchanged” and the “Dissolution rate (pH 7.4 buffer)” value is 0.071 mg/min/cm^2. In addition, in [10] (listed as PP-001 Form A), the “Hygroscopicity (GVS)” value is on record as “mass uptake. Sample is non- hygroscopic”, the “XRPD Post-GVS” value is reported as “Unchanged” and the GVS mass uptake was determined as 0.12 wt %. Further, in series [10], the “GVS mass uptake, equivalent of water” value is 0.03 mol. The XRPD after storage result in [11] (25° C./97% RH, 8 days, listed as PP-001 Form A) is “a small peak was gained at 8.1 2θ angle and a loss of a small peak at 17.6 2θ angle; also recorded: Small peak gain at 8.1 2Θ and a loss of small peaket 17.6”. Further, the XRPD after storage entry in series [11] (40° C./75% RH, 8 days, listed as PP-001 Form A) was “Unchanged”. The “Relative thermodynamic stability of the forms” value in series [12] was “thermodynamically more stable form; also recorded: preferred form over all conditions and solvents tested”.

The record behind these values is patent publication US12209073B2, “Polymorphs of a dihydroorotate dehydrogenase (DHOD) inhibitor” (KIORA PHARMACEUTICALS GmbH, priority 2022, dated 2025).
